Data from patent US20070020196A1, “Inhalant formulation containing sulfoalkyl ether cyclodextrin and corticosteroid prepared from a unit dose suspension” (priority 2003, published 2007).

How the values were obtained:
[1] = Viscosity of aqueous SAE-CD solutions (cone and plate viscometer); assay type: physicochemical; settings: 25 C
Experimental: The performance of an inhalable solution of the invention in a nebulizer may depend upon the viscosity of the solution in its reservoir, the nebulization solution. Viscosity of the inhalable composition can have an impact on percentage of nebulization composition emitted from a nebulizer, output rate of nebulized corticosteroid and droplet size distribution.
The viscosity of aqueous solutions containing SAE-CD were measured using a cone and plate viscometer.
A Brookfield Programmable DV-III+ Rheometer, CPE-40 cone and CPE 40Y plate (Brookfield Engineering Laboratories, Middleboro, Mass.) was used to make measurements on 0.5 ml samples at 1, 2, 3, 5 and 10 rpm. Samples were sheered for approximately 5 revolutions prior to each measurement. This allowed accurate rheological characterization of the samples. The temperature of all samples was equilibrated to 25+/−1 degree centigrade using a double wall viscometer cone supplied with water from an electronically controlled thermostatic circulating water bath (Model, 8001, Fisher Scientific, Pittsburgh, Pa.). The viscometer was calibrated using 5 and 50 centipoise using silicon oil calibration standards. Viscosity measurements were made at 5 or more rotation speeds to look for sheer thinning behavior (viscosities that decrease as the rate of sheer increases). Higher rotation speeds result in increased rates of sheer.

[2] = Density of CAPTISOL solutions (pycnometer); assay type: physicochemical; settings: 25° C.
Experimental: The concentration of SAE-CD in solution can be expressed on a weight to weight or weight to volume basis; however, these two units are interconvertible. When a known weight of cyclodextrin is dissolved in a known weight of water, the % w/w cyclodextrin concentration is determined by dividing the cyclodextrin weight in grams by the total weight (cyclodextrin+water weight) in like units and multiplying by 100. When a known weight of cyclodextrin is dissolved to a known total volume, the % w/v cyclodextrin concentration is determined by dividing the cyclodextrin weight in grams by the total volume in milliliters and multiplying by 100. The correlation between the two cyclodextrin concentration percentages was experimentally determined by preparing various % w/w cyclodextrin solutions and measuring the density of each with a pycnometer at 25° C.

[3] = Tonicity of SBE7-β-CD solutions with respect to blood; assay type: physicochemical; settings: in water
Excerpt: An osmotic agent can be used in the compositions to enhance the overall comfort to the patient upon delivery of the corticosteroid composition. Osmotic agents can be added to adjust the tonicity of SAE-CD containing solutions. Osmolality is related to concentration of SAE-CD in water. At SBE7-β-CD concentrations below about 11-13% w/v, the solutions are hypotonic or hypoosmotic with respect to blood and at SBE7-β-CD concentrations above about 11-13% w/v the SBE7-β-CD containing solutions are hypertonic or hyperosmotic with respect to blood. When red blood cells are exposed to solutions that are hypo- or hypertonic, they can shrink or swell in size, which can lead to hemolysis. As noted above and in FIG. 1, SBE-CD is less prone to induce hemolysis than other derivatized cyclodextrins. Suitable osmotic agents include any low molecular weight water-soluble species pharmaceutically approved for pulmonary and nasal delivery such as sodium chloride, lactose and glucose. The formulation of the invention can also include biological salt(s), potassium chloride, or other electrolyte(s).

red blood cells = settings: concentrations typically used to solubilize pharmaceutical formulations; cited from earlier work

Density ([2]; 8.5 % w/w Captisol): 1.041 g/mL
Density ([2]; 29.8 % w/w Captisol): 1.149 g/mL
Density ([2]; 39.7 % w/w Captisol): 1.202 g/mL
Density ([2]; 49.4 % w/w Captisol): 1.259 g/mL
Density ([2]; 59.4 % w/w Captisol): 1.320 g/mL
Density ([2]; […] w/w Captisol): 1.095 g/mL
SBE7-β-CD concentration below which solutions are hypotonic and above which hypertonic with respect to blood [3]: 11-13 % w/v
Substance: Sulfobutyl ether β-cyclodextrin [Captisol]
Viscosity ([1]; 8.5 % w/w Captisol): 1.75 Cp
Viscosity ([1]; 29.8 % w/w Captisol): 5.91 Cp
Viscosity ([1]; 39.7 % w/w Captisol): 17.0 Cp
Viscosity ([1]; 49.4 % w/w Captisol): 51.9 Cp
Viscosity ([1]; 59.4 % w/w Captisol): 527.0 Cp
Viscosity ([1]; […] w/w Captisol): 2.78 Cp
Hemolytic behavior (red blood cells): essentially no hemolytic behavior
